Measurements: patent US11364214B2, “Compositions and methods for treating eczema” (Dermala Inc., priority 2016, dated 2022)
Values after ≈ are worked out from the molar mass of the structure shown.

How the values were obtained:
S. aureus (ATCC 29213) [1] = test: Time-kill assay (bactericidal activity); format: cell-based
Protocol: This inoculum preparation was used for all experiments. Time-kill assay: A time-kill assay was performed to monitor the bactericidal activity of propionic acid (PA). […] Assays were performed in 100 μl volumes in 96-well plates and incubated at 37° C. in a sealed bag to prevent evaporation. […] Bacterial growth was determined by counting CFUs. […] The assay was setup and evaluated as described above.

S. aureus = details: Shu et al. 2013; Wang et al. 2014; cited from earlier work
S. aureus (ATCC 29213) [2] = test: Minimal inhibitory concentration (MIC) assay, microbroth dilution (CLSI M100-S22); format: cell-based; details: Staphylococcus aureus, ATCC29213; no esterase added; 10% DMSO; 16 hours at 37° C.; first well showing ≥90% reduction in growth; read-out: MIC against S. aureus

CCC(=O)O [PA, propionic acid]
time after which bactericidal against S. aureus (S. aureus (ATCC 29213) [1]; 4× the MIC (MIC 15 mM), sampled at 0, 1, 7, 24 hours, FIG. 2): 7 h | time after which S. aureus is completely killed (S. aureus (ATCC 29213) [1]; 4× the determined MIC, 0.2 mg/ml porcine liver esterase, sampled at 0, 1, 5, 24 hours, FIG. 4): 5 h | growth of S. aureus (literature) (S. aureus): inhibit growth of S. aureus | MIC (S. aureus (ATCC 29213) [2]): 15 mM (≈ 1110 µg/mL)
